In brackets after ≈: the same amount, converted by molar mass. Values belong to the compound of their own block, whether it stands above or below them.
Tests used:
physchem [1] = settings: 1-octanol/PBS, pH 7.4
in vivo [2] = settings: Sprague-Dawley, rat, iv, 1 mg/kg
in vivo [3] = settings: CF1, mouse, iv, 0.5 mg/kg
in vivo [4] = settings: FVB hSCN9a Tg, mouse, plasma, po, 30 mg/kg
in vivo [5] = settings: brain/plasma
in vitro [6] = settings: dog, MDCK-MDR1
in vitro [7] = settings: dog, MDCK-MDR1; remark: listed apart in the source
physchem [8] = settings: PBS, pH 7.4
[9] = Dissociation constant, pKa of the compound by UV-metric method; format: physicochemical
in vivo [10] = settings: beagle, dog, iv, 0.5 mg/kg
in vivo [11] = settings: FVB hSCN9a Tg, mouse, po, 30 mg/kg
[12] = octanol/water, pH 7.4

logD (physchem [1]): 3.7
Structure (SMILES): CNS(=O)(=O)Nc1nnc2cc(OCCC34CC5CC(CC(C5)C3)C4)c(C3CC3)cn12

Structure (SMILES): CS(=O)(=O)Nc1nnc2cc(COc3cc(Cl)cc(Cl)c3)c(C3CC3)cn12
Vd (in vivo [2]): 0.6 L/kg | Vd (in vivo [3]): 0.2 L/kg | concentration at 3 h (in vivo [4]): 18.8 µM | Kp (in vivo [5]): < 0.004 | logD (physchem [1]): 1.9 | Papp A→B at 10 µM (in vitro [6]): 4 ×10⁻⁶ cm/s | Papp B→A at 10 µM (in vitro [7]): 15 ×10⁻⁶ cm/s | solubility kinetic at 24 h, 200 µM (physchem [8]): 17 µM (≈ 7.26 µg/mL)

logD (physchem [1]): 3.9
Structure (SMILES): CS(=O)(=O)Nc1nnc2cc(OCC34CC5CC(CC(C5)C3)C4)c(C3CCC3)cn12

pKa [9]: 5.6 | logD (physchem [1]): 2.7
Structure (SMILES): CS(=O)(=O)Nc1nnc2cc(OCC34CC5CC(CC(C5)C3)C4)c(Cl)cn12

logD (physchem [1]): 1.8
Structure (SMILES): CS(=O)(=O)Nc1noc2cc(OCc3ccc(Cl)c(Cl)c3)c(Cl)cc12

Structure (SMILES): CS(=O)(=O)Nc1nnc2cc(OCC34CC5CC(CC(C5)C3)C4)c(C3CC3)cn12
Vd (in vivo [2]): 0.6 L/kg | Vd (in vivo [10]): 0.4 L/kg | concentration at 3 h (in vivo [4]): 46.2 µM | Tmax at 3 h (in vivo [11]): 2 h | Kp (in vivo [5]): > 0.17 | logD (physchem [1]): 3.5 | Papp A→B at 10 µM (in vitro [6]): 3.2 ×10⁻⁶ cm/s | Papp B→A at 10 µM (in vitro [7]): 3.2 ×10⁻⁶ cm/s | solubility kinetic at 24 h, 200 µM (physchem [8]): 32 µM (≈ 13.3 µg/mL)

logD (physchem [1]): 4.7
Structure (SMILES): O=S(=O)(Nc1nnc2cc(OCC34CC5CC(CC(C5)C3)C4)c(C3CC3)cn12)C1CCC1

logD (physchem [1]): 2.9
Structure (SMILES): CC(C)c1cn2c(NS(C)(=O)=O)nnc2cc1OCC12CC3CC(CC(C3)C1)C2

pKa [9]: 3.8 | logD [12]: 2.4
Structure (SMILES): CS(=O)(=O)NC(=O)c1cc(Cl)c(OCC23CC4CC(CC(C4)C2)C3)cc1F

logD (physchem [1]): 2.2
Structure (SMILES): CS(=O)(=O)Nc1nnc2cc(OCC34CC5CC(CC(C5)C3)C4)ccn12

logD (physchem [1]): 3.1
Structure (SMILES): O=S(=O)(Nc1nnc2cc(OCC34CC5CC(CC(C5)C3)C4)c(C3CC3)cn12)C(F)F

logD (physchem [1]): 2.5
Structure (SMILES): CS(=O)(=O)Nc1noc2cc(COc3ccc(Cl)c(Cl)c3)c(Cl)cc12

logD (physchem [1]): 2.8
Structure (SMILES): CS(=O)(=O)Nc1nnc2cc(OCC34CC5CC(CC(C5)C3)C4)c(Br)cn12

pKa [9]: 4.7 | logD (physchem [1]): 3.5
Structure (SMILES): CS(=O)(=O)Nc1noc2cc(OCC34CC5CC(CC(C5)C3)C4)c(Cl)cc12

logD (physchem [1]): 1.5
Structure (SMILES): CS(=O)(=O)Nc1nnc2cc(COc3ccc(Cl)c(Cl)c3)c(C3CC3)cn12

logD (physchem [1]): 2.4
Structure (SMILES): CS(=O)(=O)Nc1noc2cc(COc3ccc(Cl)c(Cl)c3)c(C3CC3)cc12

logD (physchem [1]): 3.1
Structure (SMILES): CCc1cn2c(NS(C)(=O)=O)nnc2cc1OCC12CC3CC(CC(C3)C1)C2

logD (physchem [1]): 2.3
Structure (SMILES): CS(=O)(=O)Nc1nnc2cc(OCC3C4CC5CC(C4)CC3C5)c(C3CC3)cn12 (configuration not stated)

logD (physchem [1]): 3.2
Structure (SMILES): CNS(=O)(=O)Nc1nnc2cc(OCC34CC5CC(CC(C5)C3)C4)c(C3CC3)cn12

— ChEMBL document CHEMBL4251746, “Design of Conformationally Constrained Acyl Sulfonamide Isosteres: Identification of N-([1,2,4]Triazolo[4,3- a]pyridin-3-yl)methane-sulfonamides as Potent and Selective hNaV1.7 Inhibitors for the Treatment of Pain” (J Med Chem, 2018)
